Data as given in patent publication US20240294551A1 (AMGEN INC., priority 2022, published 2024).
Like-named read-outs stand apart in the source and are kept apart here.

How the values were obtained:
[1] = biological target: GDP-bound KRAS protein (aa 1-169), containing both G12D and C118A amino acid substitutions (Homo sapiens (Human), UniProt P01116, C118A/G12D); assay: KRAS G12D Coupled Nucleotide Exchange Assay; type: biochemical
Procedure: KRAS G12D Coupled Nucleotide Exchange Assay
Following compound pre-incubation, purified SOS protein (aa 564-1049) and GTP (Roche 10106399001) were added to the assay wells and incubated for an additional 30 min. To determine the extent of inhibition of SOS-mediated nucleotide exchange, purified GST-tagged cRAF (aa 1-149), nickel chelate AlphaLISA acceptor beads (PerkinElmer AL108R), and AlphaScreen glutathione donor beads (PerkinElmer 6765302) were added to the assay wells and incubated for 10 minutes. The assay plates were then read on a PerkinElmer EnVision Multilabel Reader, using AlphaScreen® technology, and data were analyzed using a 4-parameter logistic model to calculate IC50 values.

[2] = biological target: His-tagged KRAS G12D protein (Homo sapiens (Human), UniProt P01116, G12D); assay: KRAS G12D TR-FRET Assay; type: binding
Sequence of His-tagged KRAS G12D protein (P01116 other isoform, or with tags, fused parts or gaps G12D): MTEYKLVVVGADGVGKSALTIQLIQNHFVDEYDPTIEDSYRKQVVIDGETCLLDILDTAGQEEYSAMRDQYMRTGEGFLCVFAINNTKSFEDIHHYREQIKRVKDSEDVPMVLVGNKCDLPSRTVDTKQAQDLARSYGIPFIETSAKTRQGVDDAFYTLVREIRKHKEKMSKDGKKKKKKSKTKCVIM
Procedure: Compounds of interest were prepared in a dose-response titration in DMSO, and 80 nL were added via Labcyte Echo to each well of a 384-well plate (Perkin Elmer 6008280). The His-tagged KRAS G12D protein (Amgen) was diluted to 20 nM in Assay Buffer (20 mM HEPES, pH 7.4, 10 mM MgCl2, 50 mM NaCl, 0.1% BSA, 0.01% Tween-20, 10 μM GDP) and 2 μL was added to the appropriate wells of the 384-well plate. The plate was incubated for 30 minutes at room temperature. Biotinylated KRPep-2d substrate (Amgen) was diluted to 20 nM in Assay Buffer and 2 μL was added to all wells and incubated for 1 hour at room temperature. Detection Reagent (0.4 nM LANCE Eu-W1024 Anti-6×His (Perkin Elmer AD0401), 5 nM streptavidin-d2 (Cisbio 610SADLA)) was prepared in Assay Buffer, then 4 μL was added to the plate and incubated for 1 hour at room temperature. Plates were read using PerkinElmer EnVision (ex: 320 nm, em1: 665 nm, em2: 615 nm) and em1/em2 data was used to generate curve fits using a 4-parameter logistic model to calculate IC50 values.

[3] = read-out: KRAS G12D Coupled Exchange IC50
[4] = read-out: KRAS G12D Binding IC50
[5] = 2 hours compound pre-incubation, read-out: KRAS G12D Coupled Exchange
[6] = TR-FRET, read-out: KRAS G12D Binding

Sequence of GDP-bound KRAS protein (aa 1-169), containing both G12D and C118A amino acid substitutions (P01116 other isoform, or with tags, fused parts or gaps G12D/C118A): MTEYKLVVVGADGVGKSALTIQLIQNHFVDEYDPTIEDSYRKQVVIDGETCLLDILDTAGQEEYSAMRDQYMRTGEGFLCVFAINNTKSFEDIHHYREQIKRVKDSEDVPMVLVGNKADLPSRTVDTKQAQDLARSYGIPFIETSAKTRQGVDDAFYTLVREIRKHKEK

Row | Structure (SMILES) | IC50 [1, 3] | IC50 [2, 4] | IC50 [1, 5] | IC50 [2, 6]
1 | Cc1cc2[nH]ncc2c2c1CCCCC(=O)N1CC3CCN(CC3C1)c1nc(OC[C@@]34CCCN3C[C@H](F)C4)nc3c(F)c-2ncc13 (mixture of isomers) [Example 57] | 194 nM | 221 nM |  | 
2 | CN1C(=O)CCCCc2c(Cl)cc3[nH]ncc3c2-c2ncc3c(nc(OC[C@@]45CCCN4C[C@H](F)C5)nc3c2F)N2CCOCC1C2 (mixture of isomers) [Example 64] | 81 nM | 98 nM |  | 
3 | Cc1cc2[nH]ncc2c2c1CCCCC(=O)OC1CN(CC3(CC3)C1)c1nc(OC[C@@]34CCCN3C[C@H](F)C4)nc3c(F)c-2ncc13 (mixture of isomers) [Example 80, (17′R)-30′-fluoro-24′-(((2R,7aS)-2-fluorotetrahydro-1H-pyrrolo[1,2-a]pyrrol-7a(5H)-yl)methoxy)-9′-methyl-16′-oxa-5′,6′,21′,23′,25′,29′-hexaazaspiro[cyclopropane-1,19′-hexacyclo[24.3.1.1~17,21~.0~2,10~.0~3,7~.0~22,27~]hentriacontane]-1′(30′),2′,4′,7′,9′,22′,24′,26′,28′-nonaen-15′-one] | 47 nM | 55 nM |  | 
4 | Cc1cc2[nH]ncc2c2c1CCCCC(=O)OC1CN(CC(F)(F)C1)c1nc(OC[C@@]34CCCN3C[C@H](F)C4)nc3c(F)c-2ncc13 (mixture of isomers) [Example 81] | 212 nM | 279 nM |  | 
5 | Cc1cc2[nH]ncc2c2c1CCC(=O)OCCC1CCCN(C1)c1nc(OC[C@@]34CCCN3C[C@H](F)C4)nc3c(F)c-2ncc13 (mixture of isomers) [Example 107] | 42 nM | 70 nM |  | 
6 | [O-][S+]1CCCCc2c(Cl)cc3[nH]ncc3c2-c2ncc3c(nc(OC[C@@]45CCCN4C[C@H](F)C5)nc3c2F)N2CCC[C@H](C2)C1 (mixture of isomers) [Example 144] | 79 nM | 146 nM |  | 
7 | O[C@H]1C[C@@H]2CN(C1)c1nc(OC[C@@]34CCCN3C[C@H](F)C4)nc3c(F)c(ncc13)-c1c(c(Cl)cc3[nH]ncc13)CCCc1nc2no1 (mixture of isomers) [Example 377] |  |  | 2 nM | 5 nM
8 | Cc1cc2[nH]ncc2c2c1CCCCC(=O)OC1CC[C@@H]3CC[C@H]1N3c1nc(OC[C@@]34CCCN3C[C@H](F)C4)nc3c(F)c-2ncc13 (racemic) [Example 86] | 57 nM | 61 nM |  | 
9 | O=C1CCCCc2c(Cl)cc3[nH]ncc3c2-c2ncc3c(nc(OC[C@@]45CCCN4C[C@H](F)C5)nc3c2F)N2C[C@H](O)C[C@@H](C2)N1 (racemic) [Example 276, (17S,19R)-9-chloro-30-fluoro-24-(((2R,7aS)-2-fluorotetrahydro-1H-pyrrolo[1,2-a]pyrrol-7a(5H)-yl)methoxy)-19-hydroxy-5,6,16,21,23,25,29-heptaazahexacyclo[24.3.1.1~17,21~.0~2,10~.0~3,7~.0~22,27~]hentriaconta-1(30),2,4,7,9,22,24,26,28-nonaen-15-one] | 153 nM | 498 nM |  | 
10 | Cc1cc2[nH]ncc2c2c1[C@@H]1C[C@@H]1CCOC[C@H]1CN(CCO1)c1nc(OC[C@@]34CCCN3C[C@H](F)C4)nc3c(F)c-2ncc13 (single isomer, unassigned) [Example 225] | 4770 nM | 9620 nM |  | 
11 | Fc1c2ncc3c(nc(OC[C@@]45CCCN4C[C@H](F)C5)nc13)N1CCO[C@]3(C1)C[C@H](C3)OCCCCc1c(Cl)cc3[nH]ncc3c1-2 (single isomer, unassigned) [Example 262] | 2420 nM | 3260 nM |  | 
12 | Cc1cc2[nH]ncc2c2c1CCOC(=O)O[C@H]1C[C@@]3(CCCN(C3)c3nc(OC[C@@H]4CCCN4C)nc4c(F)c-2ncc34)C1 (single isomer, unassigned) [Example 325] | 65 nM | 99 nM |  | 
13 | O=C1CCCCc2c(Cl)cc3[nH]ncc3c2-c2ncc3c(nc(OC[C@@]45CCCN4C[C@H](F)C5)nc3c2F)N2CC[C@H]3[C@@H](C2)N1CC3(F)F (single isomer, unassigned) [Example 402] |  |  | 46 nM | 97 nM
14 | OC1c2ncc(o2)CCc2c(Cl)cc3[nH]ncc3c2-c2ncc3c(nc(OC[C@@]45CCCN4C[C@H](F)C5)nc3c2F)N2CCO[C@@H]1C2 (stereo in doubt) [Example 395, (17R,18R)-9-chloro-31-fluoro-25-(((2R,7aS)-2-fluorotetrahydro-1H-pyrrolo[1,2-a]pyrrol-7a(5H)-yl)methoxy)-19,33-dioxa-5,6,15,22,24,26,30-heptaazaheptacyclo[25.3.1.1~13,16~.1~18,22~.0~2,10~.0~3,7~.0~23,28~]tritriaconta-1(31),2,4,7,9,13,15,23,25,27,29-undecaen-17-ol] |  |  | 198 nM | 1170 nM
15 | COc1nc2c3cnc(c(F)c3n1)-c1cc(O)cc3ccc(F)c(c13)CCCC(=O)N[C@]1(C)CCCN2C1 [Example 6, (15R)-22,31-Difluoro-27-hydroxy-8-methoxy-15-methyl-3,7,9,11,16-pentaazahexacyclo[19.7.1.1˜2,6˜.1˜11,15˜.0˜5,10˜.0˜25,29˜]hentriaconta-1(28),2(31),3,5,7,9,21,23,25(29),26-decaen-17-one bis(2,2,2-trifluoroacetate)] | 125 nM | 154 nM |  | 
16 | O=C1CCCCc2cccc3cc(O)cc(c23)-c2ncc3c(nc(OC[C@@]45CCCN4C[C@H](F)C5)nc3c2F)N2CCCN1CC2 [Example 9, 32-Fluoro-4-(((2R,7aS)-2-fluorotetrahydro-1H-pyrrolo[1,2-a]pyrrol-7a(5H)-yl)methoxy)-13-hydroxy-1,3,5,9,25-pentaazahexacyclo[23.3.2.1˜6,10˜.1˜11,15˜.0˜2,7˜.0˜19,31˜]dotriaconta-2,4,6(32),7,9,11(31),12,14,16,18-decaen-24-one bis(2,2,2-trifluoroacetate)] | 292 nM | 302 nM |  | 
17 | Cc1nc2c3cnc(c(F)c3n1)-c1cc(O)cc3ccc(F)c(c13)CCCC(=O)N[C@]1(C)CCCN2C1.O=C(O)C(F)(F)F [Example 14, (15R)-22,31-Difluoro-27-hydroxy-8,15-dimethyl-3,7,9,11,16-pentaazahexacyclo[19.7.1.1˜2,6˜.1˜11,15˜.0˜5,10˜.0˜25,29˜]hentriaconta-1(28),2(31),3,5,7,9,21,23,25(29),26-decaen-17-one 2,2,2-trifluoroacetate] | 296 nM | 344 nM |  | 
18 | Cc1cc2[nH]ncc2c2c1CCCCCC(=O)N[C@]1(C)CCCN(C1)c1nc(OC[C@@]34CCCN3C[C@H](F)C4)nc3c(F)c-2ncc13 [Example 21, (18R)-31-Fluoro-25-(((2R,7aS)-2-fluorotetrahydro-1H-pyrrolo[1,2-a]pyrrol-7a(5H)-yl)methoxy)-9,18-dimethyl-5,6,17,22,24,26,30-heptaazahexacyclo[25.3.1.1˜18,22˜0.0˜2,10˜0.0˜3,7˜0.0˜23,28˜]dotriaconta-1(31),2,4,7,9,23,25,27,29-nonaen-16-one] | 43 nM | 43 nM |  | 
19 | Cc1c2ncc3c(nc(OCC45CCC(CC4)O5)nc13)N1CCC[C@](C)(C1)NC(=O)CCCc1c(F)ccc3cc(O)cc-2c13 [Example 23, (15R)-22-Fluoro-27-hydroxy-15,31-dimethyl-8-((1r,4r)-7-oxabicyclo[2.2.1]heptan-1-ylmethoxy)-3,7,9,11,16-pentaazahexacyclo[19.7.1.1˜2,6˜.1˜11,15˜.0˜5,10˜.0˜25,29˜]hentriaconta-1(28),2(31),3,5,7,9,21,23,25(29),26-decaen-17-one] | 111 nM | 160 nM |  | 
20 | [2H]C([2H])([2H])[C@]12COCCN(C1)c1nc(OC[C@@]34CCCN3C[C@H](F)C4)nc3c(F)c(ncc13)-c1c(c(C)cc3[nH]ncc13)CCCOC(=O)O2 [Example 351, (26R)-32-fluoro-4-(((2R,7aS)-2-fluorotetrahydro-1H-pyrrolo[1,2-a]pyrrol-7a(5H)-yl)methoxy)-18-methyl-26-(~2~H_3_)methyl-23,25,28-trioxa-1,3,5,9,14,15-hexaazahexacyclo[24.4.1.1~6,10~.0~2,7~.0~11,19~.0~12,16~]dotriaconta-2,4,6,8,10(32),11,13,16,18-nonaen-24-one] | 149 nM |  |  | 
21 | [2H]C([2H])([2H])[C@]12COCCN(C1)c1nc(OC[C@@]34CCCN3C[C@H](F)C4)nc3c(F)c(ncc13)-c1c(c(Cl)cc3[nH]ncc13)CCCOC(=O)O2 [Example 354, (26R)-18-chloro-32-fluoro-4-(((2R,7aS)-2-fluorotetrahydro-1H-pyrrolo[1,2-a]pyrrol-7a(5H)-yl)methoxy)-26-(~2~H_3_)methyl-23,25,28-trioxa-1,3,5,9,14,15-hexaazahexacyclo[24.4.1.1~6,10~.0~2,7~.0~11,19~.0~12,16~]dotriaconta-2,4,6(32),7,9,11,13,16,18-nonaen-24-one] | 531 nM |  |  | 
